Measurements: BindingDB's records for PubMed 20126400 (University of Oklahoma, 2010)

What was measured:
Experiment in all cases: Ray2010 Assay 74
[1] = molecular target: Mu-type opioid receptor (Homo sapiens, UniProt P35372)
Source text: (§1) Table S2 shows raw Ki data for the current study combined with data collected from the literature for the ten additional compounds.

[2] = molecular target: D(1A) dopamine receptor (Homo sapiens, UniProt P21728)
Source text: as §1

[3] = molecular target: 5-hydroxytryptamine receptor 6 (Homo sapiens, UniProt P50406)
Sequence of 5-hydroxytryptamine receptor 6 (P50406 whole entry): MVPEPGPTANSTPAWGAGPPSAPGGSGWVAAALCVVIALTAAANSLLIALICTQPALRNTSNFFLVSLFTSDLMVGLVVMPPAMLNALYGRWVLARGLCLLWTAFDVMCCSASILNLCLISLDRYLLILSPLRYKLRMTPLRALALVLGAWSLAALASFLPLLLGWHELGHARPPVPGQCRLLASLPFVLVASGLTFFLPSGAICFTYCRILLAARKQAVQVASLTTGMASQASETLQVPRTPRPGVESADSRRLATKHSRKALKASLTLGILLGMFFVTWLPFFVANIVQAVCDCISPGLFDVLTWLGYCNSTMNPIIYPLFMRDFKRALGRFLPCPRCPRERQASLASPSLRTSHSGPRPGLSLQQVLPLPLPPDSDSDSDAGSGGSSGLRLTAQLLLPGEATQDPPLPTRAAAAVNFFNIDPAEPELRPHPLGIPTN
Source text: as §1

[4] = molecular target: Histamine H2 receptor (Homo sapiens, UniProt P25021)
Sequence of Histamine H2 receptor (P25021 whole entry): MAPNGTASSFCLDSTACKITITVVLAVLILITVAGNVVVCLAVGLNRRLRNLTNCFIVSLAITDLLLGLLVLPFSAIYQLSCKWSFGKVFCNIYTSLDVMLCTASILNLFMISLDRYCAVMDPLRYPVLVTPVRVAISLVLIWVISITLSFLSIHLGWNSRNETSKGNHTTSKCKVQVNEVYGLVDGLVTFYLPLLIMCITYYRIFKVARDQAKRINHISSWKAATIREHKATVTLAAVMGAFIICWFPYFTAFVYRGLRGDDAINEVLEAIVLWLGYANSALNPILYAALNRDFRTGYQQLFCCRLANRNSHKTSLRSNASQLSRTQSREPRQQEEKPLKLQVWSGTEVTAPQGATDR
Source text: as §1

[5] = molecular target: Sodium-dependent serotonin transporter (Homo sapiens, UniProt P31645)
Sequence of Sodium-dependent serotonin transporter (P31645 whole entry): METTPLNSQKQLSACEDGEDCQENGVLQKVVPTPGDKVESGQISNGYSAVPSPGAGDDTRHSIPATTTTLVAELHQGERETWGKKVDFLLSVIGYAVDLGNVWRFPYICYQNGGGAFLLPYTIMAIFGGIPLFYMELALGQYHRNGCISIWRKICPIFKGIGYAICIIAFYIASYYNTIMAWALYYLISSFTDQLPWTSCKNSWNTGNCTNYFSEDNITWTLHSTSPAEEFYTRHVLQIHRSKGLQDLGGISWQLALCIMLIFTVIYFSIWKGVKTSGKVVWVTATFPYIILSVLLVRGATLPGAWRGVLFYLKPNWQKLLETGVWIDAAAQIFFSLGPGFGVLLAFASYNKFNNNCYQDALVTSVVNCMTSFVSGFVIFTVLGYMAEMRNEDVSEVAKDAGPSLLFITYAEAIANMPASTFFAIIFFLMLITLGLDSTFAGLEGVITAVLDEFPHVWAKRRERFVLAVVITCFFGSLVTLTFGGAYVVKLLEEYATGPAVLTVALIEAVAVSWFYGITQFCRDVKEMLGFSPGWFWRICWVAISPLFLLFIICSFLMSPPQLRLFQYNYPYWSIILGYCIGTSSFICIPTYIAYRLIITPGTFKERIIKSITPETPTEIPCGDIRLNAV
Source text: as §1

[6] = molecular target: T1, 5-hydroxytryptamine receptor 1A (Homo sapiens, UniProt P08908)
T1 sequence (P08908 whole entry): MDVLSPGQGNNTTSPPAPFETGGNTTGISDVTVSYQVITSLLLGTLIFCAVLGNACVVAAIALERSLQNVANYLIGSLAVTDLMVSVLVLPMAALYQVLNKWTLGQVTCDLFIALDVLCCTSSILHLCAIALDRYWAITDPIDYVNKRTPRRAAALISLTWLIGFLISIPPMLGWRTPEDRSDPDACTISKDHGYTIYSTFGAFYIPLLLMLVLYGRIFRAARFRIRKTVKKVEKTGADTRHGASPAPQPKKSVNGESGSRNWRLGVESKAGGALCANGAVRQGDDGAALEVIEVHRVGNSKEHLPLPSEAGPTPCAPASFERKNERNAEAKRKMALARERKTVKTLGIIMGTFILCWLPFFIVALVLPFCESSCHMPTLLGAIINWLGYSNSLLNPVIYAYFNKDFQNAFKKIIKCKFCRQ
Source text: as §1

[7] = molecular target: 5-hydroxytryptamine receptor 2B (Homo sapiens, UniProt P41595)
Sequence of 5-hydroxytryptamine receptor 2B (P41595 whole entry): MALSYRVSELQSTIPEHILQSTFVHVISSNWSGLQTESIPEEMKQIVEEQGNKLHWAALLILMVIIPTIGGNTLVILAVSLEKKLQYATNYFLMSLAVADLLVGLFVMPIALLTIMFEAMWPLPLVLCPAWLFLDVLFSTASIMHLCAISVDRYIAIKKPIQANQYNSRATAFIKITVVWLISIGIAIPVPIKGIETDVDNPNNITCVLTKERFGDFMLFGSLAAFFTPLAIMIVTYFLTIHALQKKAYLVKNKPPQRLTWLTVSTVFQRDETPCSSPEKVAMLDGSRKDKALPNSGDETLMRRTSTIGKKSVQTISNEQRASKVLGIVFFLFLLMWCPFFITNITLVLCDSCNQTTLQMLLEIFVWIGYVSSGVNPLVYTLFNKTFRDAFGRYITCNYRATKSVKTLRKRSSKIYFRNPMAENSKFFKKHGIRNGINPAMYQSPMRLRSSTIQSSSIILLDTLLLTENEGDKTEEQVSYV
Source text: as §1

[8] = molecular target: D(1B) dopamine receptor (Homo sapiens, UniProt P21918)
Sequence of D(1B) dopamine receptor (P21918 whole entry): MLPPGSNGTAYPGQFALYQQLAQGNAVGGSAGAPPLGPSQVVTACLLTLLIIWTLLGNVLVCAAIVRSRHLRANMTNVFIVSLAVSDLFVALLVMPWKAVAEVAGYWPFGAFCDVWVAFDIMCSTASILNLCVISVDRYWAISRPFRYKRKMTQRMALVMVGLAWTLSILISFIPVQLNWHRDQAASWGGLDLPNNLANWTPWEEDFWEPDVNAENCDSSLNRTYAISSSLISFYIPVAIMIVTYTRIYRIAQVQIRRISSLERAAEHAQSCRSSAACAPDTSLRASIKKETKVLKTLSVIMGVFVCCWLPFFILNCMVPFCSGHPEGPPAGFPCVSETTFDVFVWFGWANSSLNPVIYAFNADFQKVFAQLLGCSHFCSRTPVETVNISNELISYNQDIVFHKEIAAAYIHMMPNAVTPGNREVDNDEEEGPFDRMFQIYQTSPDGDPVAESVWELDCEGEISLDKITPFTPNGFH
Source text: as §1

[9] = molecular target: Kappa-type opioid receptor (Homo sapiens, UniProt P41145)
Sequence of Kappa-type opioid receptor (P41145 whole entry): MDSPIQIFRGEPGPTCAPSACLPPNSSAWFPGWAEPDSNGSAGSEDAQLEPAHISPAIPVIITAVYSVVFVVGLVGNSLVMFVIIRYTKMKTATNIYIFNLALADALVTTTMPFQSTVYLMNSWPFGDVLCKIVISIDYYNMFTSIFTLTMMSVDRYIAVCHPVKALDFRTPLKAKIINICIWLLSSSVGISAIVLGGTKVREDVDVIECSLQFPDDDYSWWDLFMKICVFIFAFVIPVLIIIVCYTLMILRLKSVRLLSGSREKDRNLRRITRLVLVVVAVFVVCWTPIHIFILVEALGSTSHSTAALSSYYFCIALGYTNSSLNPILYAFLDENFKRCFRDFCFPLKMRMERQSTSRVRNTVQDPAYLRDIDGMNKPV
Source text: as §1

[10] = molecular target: T2, Gamma-aminobutyric acid receptor subunit alpha-1 (Homo sapiens, UniProt P14867)
T2 sequence (P14867 whole entry): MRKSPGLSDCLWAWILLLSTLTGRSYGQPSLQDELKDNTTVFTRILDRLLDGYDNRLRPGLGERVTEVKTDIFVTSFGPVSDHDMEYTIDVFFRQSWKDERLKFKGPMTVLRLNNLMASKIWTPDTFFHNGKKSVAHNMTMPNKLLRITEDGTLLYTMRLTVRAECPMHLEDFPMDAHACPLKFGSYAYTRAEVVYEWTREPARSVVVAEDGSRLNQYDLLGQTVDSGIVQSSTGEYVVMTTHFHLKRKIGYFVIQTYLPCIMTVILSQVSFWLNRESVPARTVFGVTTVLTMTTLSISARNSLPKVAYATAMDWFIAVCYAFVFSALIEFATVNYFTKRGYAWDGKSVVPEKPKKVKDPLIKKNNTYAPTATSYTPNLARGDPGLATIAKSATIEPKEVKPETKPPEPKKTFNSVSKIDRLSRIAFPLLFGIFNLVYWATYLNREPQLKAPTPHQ
Source text: as §1

[11] = molecular target: Beta-1 adrenergic receptor (Homo sapiens, UniProt P08588)
Sequence of Beta-1 adrenergic receptor (P08588 whole entry): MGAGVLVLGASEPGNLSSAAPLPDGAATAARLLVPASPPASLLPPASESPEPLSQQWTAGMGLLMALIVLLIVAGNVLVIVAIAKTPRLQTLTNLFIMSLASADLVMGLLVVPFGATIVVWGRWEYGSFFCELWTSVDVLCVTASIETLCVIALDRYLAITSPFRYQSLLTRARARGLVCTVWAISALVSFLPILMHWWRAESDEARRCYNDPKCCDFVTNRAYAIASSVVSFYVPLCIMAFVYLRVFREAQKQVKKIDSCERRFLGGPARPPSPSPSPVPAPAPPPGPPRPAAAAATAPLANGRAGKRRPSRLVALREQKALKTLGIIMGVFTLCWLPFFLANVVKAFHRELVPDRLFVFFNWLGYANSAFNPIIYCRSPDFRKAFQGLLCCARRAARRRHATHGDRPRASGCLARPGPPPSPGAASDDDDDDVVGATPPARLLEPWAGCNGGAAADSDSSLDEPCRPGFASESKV
Source text: as §1

[12] = molecular target: T3, Muscarinic acetylcholine receptor M5 (Homo sapiens, UniProt P08912)
T3 sequence (P08912 whole entry): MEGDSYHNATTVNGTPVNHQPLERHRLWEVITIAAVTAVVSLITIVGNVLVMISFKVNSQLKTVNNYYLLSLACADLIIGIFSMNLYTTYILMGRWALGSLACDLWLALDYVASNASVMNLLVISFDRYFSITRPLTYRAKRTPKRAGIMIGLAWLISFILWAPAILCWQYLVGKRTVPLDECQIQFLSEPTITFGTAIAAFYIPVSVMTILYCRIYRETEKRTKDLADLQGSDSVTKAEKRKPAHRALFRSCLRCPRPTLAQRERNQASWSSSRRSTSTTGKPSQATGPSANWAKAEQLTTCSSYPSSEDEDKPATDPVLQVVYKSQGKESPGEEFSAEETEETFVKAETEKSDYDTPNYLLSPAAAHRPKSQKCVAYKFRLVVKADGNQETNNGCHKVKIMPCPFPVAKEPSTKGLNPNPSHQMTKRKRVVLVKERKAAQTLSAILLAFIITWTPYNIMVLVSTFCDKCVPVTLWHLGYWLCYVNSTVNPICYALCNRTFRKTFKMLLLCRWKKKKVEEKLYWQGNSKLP
Source text: as §1

[13] = molecular target: T4, Alpha-1B adrenergic receptor (Homo sapiens, UniProt P35368)
T4 sequence (P35368 whole entry): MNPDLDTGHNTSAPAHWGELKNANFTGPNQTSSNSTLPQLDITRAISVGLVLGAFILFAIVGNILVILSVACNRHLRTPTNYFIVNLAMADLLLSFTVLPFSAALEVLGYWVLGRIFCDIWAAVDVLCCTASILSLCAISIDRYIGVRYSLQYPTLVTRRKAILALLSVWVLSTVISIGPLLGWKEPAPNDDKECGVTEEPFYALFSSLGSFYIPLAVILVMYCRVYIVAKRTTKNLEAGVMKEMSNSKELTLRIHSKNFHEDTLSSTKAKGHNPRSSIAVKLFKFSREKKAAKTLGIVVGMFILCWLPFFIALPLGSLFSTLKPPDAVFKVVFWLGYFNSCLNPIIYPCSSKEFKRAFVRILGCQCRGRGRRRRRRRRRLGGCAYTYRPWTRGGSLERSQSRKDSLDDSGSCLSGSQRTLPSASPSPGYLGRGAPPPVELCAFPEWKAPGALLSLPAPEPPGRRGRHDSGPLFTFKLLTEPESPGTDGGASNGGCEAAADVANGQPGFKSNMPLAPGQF
Source text: as §1

[14] = molecular target: 5-hydroxytryptamine receptor 1E (Homo sapiens, UniProt P28566)
Sequence of 5-hydroxytryptamine receptor 1E (P28566 whole entry): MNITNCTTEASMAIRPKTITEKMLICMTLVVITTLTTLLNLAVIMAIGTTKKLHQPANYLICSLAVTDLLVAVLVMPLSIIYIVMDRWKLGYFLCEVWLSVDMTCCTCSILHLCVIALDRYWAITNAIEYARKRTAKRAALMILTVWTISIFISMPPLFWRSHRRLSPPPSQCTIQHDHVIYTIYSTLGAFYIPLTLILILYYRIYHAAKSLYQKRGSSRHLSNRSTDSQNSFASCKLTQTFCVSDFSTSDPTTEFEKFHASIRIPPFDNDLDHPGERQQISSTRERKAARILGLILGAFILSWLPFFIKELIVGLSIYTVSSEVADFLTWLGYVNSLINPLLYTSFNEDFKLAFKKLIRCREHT
Source text: as §1

[15] = molecular target: 5-hydroxytryptamine receptor 5A (Homo sapiens, UniProt P47898)
Sequence of 5-hydroxytryptamine receptor 5A (P47898 whole entry): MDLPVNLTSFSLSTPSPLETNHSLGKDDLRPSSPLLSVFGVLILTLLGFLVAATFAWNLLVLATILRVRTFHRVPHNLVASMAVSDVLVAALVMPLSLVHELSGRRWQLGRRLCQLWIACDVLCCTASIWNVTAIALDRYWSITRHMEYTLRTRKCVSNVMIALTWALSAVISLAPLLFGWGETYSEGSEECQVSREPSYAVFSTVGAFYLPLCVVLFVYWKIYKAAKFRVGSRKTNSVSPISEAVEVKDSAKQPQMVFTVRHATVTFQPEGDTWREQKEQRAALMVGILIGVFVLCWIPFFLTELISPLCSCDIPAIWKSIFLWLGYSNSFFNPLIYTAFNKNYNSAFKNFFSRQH
Source text: as §1

Sequence of Mu-type opioid receptor (P35372 whole entry): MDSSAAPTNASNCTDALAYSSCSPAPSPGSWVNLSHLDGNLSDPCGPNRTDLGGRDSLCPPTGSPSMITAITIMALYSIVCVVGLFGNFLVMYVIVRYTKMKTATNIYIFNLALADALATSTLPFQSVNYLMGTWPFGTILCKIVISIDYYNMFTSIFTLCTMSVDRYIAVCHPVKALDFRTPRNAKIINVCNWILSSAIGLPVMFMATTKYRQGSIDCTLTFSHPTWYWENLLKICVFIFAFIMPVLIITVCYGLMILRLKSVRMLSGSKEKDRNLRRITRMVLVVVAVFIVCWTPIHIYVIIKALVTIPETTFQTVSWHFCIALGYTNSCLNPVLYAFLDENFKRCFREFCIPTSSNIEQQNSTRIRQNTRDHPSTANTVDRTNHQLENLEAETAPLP
Sequence of D(1A) dopamine receptor (P21728 whole entry): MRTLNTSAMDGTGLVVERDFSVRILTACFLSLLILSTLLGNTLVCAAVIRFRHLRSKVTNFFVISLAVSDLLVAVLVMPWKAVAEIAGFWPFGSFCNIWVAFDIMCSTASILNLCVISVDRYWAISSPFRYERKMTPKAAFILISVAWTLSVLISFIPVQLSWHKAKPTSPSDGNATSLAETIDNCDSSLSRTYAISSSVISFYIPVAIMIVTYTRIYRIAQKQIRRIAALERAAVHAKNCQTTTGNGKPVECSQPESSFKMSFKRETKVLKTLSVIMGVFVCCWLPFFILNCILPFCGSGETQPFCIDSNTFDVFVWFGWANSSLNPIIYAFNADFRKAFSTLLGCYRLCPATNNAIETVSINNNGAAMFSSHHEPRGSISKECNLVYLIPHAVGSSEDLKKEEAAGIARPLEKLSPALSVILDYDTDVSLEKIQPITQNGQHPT

Compound | Ki [1] | Ki [2] | Ki [3] | Ki [4] | Ki [5] | Ki [6] | Ki [7] | Ki [8] | Ki [9] | Ki [10] | Ki [11] | Ki [12] | Ki [13] | Ki [14] | Ki [15]
COc1cc(CC(C)N)cc(OC)c1OC (stereo not given) | > 10 µM | > 10 µM | > 10 µM | > 10 µM | > 10 µM | 1.68 µM | 0.477 µM | > 10 µM | > 10 µM | > 10 µM | > 10 µM | > 10 µM | > 10 µM | 3.37 µM | > 10 µM
CCc1cc(OC)c(CC(C)N)cc1OC (stereo not given) | > 10 µM | > 10 µM | > 10 µM | > 10 µM | > 10 µM | 0.0144 µM | 0.0288 µM | > 10 µM | > 10 µM | > 10 µM | 5.72 µM | > 10 µM | > 10 µM | 3.55 µM | > 10 µM
CCSc1cc(OC)c(CC(N)CC)cc1OC (stereo not given) [1-(4-Ethylsulfanyl-2,5-dimethoxy-benzyl)-propylamine] | > 10 µM | > 10 µM | > 10 µM | > 10 µM | > 10 µM | 5.34 µM | 0.0581 µM | > 10 µM | > 10 µM | > 10 µM | > 10 µM | > 10 µM | > 10 µM | 9.88 µM | 1.59 µM
COc1cc(CC(C)N)c(OC)cc1Br (stereo not drawn) [2-(4-Bromo-2,5-dimethoxy-phenyl)-1-methyl-ethylamine((-)-DOB)] | > 10 µM | > 10 µM | 5.53 µM | > 10 µM | 8.54 µM | 2.55 µM | 0.0039 µM | > 10 µM | > 10 µM | > 10 µM | 2.42 µM | > 10 µM | > 10 µM | 1.43 µM | 5.31 µM
NCCc1c2c(c(Br)c3c1OCC3)OCC2 [2-(8-Bromo-2,3,6,7-tetrahydro-benzo[1,2-b;4,5-b']difuran-4-yl)-ethylamine] | > 10 µM | 4.96 µM | 0.15 µM | > 10 µM | > 10 µM | 0.147 µM | 0.0009 µM | > 10 µM | > 10 µM | > 10 µM | > 10 µM | 0.873 µM | > 10 µM | 0.11 µM | > 10 µM
CCSc1cc(OC)c(CCN)cc1OC [2C-T-2] | > 10 µM | > 10 µM | 1.36 µM | > 10 µM | > 10 µM | 0.381 µM | 0.006 µM | > 10 µM | > 10 µM | > 10 µM | 9.2 µM | 1.5 µM | > 10 µM | 0.415 µM | > 10 µM
COc1ccc2[nH]cc(CCN(C(C)C)C(C)C)c2c1 [5-meo-dipt] | > 10 µM | > 10 µM | > 10 µM | > 10 µM | 2.53 µM | 0.132 µM | 0.163 µM | > 10 µM | > 10 µM | > 10 µM | > 10 µM | > 10 µM | > 10 µM | > 10 µM | > 10 µM
COc1ccc2[nH]cc(CCN(C)C(C)C)c2c1 [5-meo-mipt] | > 10 µM | > 10 µM | 0.13 µM | > 10 µM | 6.41 µM | 0.0123 µM | 0.0585 µM | > 10 µM | > 10 µM | > 10 µM | > 10 µM | > 10 µM | > 10 µM | 3.5 µM | 0.953 µM
CN(C)CCc1c[nH]c2cc(F)ccc12 [6-f-dmt] | > 10 µM | 0.547 µM | 0.0256 µM | 0.925 µM | 0.145 µM | 0.393 µM | 0.0298 µM | 6.29 µM | > 10 µM | > 10 µM | > 10 µM | > 10 µM | > 10 µM | 0.461 µM | 0.96 µM
COc1cc(CC(C)N)c(OC)cc1C (stereo not drawn) [(+/-)2-(2,5-Dimethoxy-4-methyl-phenyl)-1-methyl-ethylamine] | > 10 µM | > 10 µM | 8.15 µM | > 10 µM | > 10 µM | 3.66 µM | 0.0117 µM | > 10 µM | > 10 µM | > 10 µM | > 10 µM | > 10 µM | > 10 µM | 3.54 µM | > 10 µM
CC(C)N(CCc1c[nH]c2ccccc12)C(C)C [dipt] | > 10 µM | > 10 µM | > 10 µM | > 10 µM | 1.26 µM | 0.12 µM | 0.398 µM | > 10 µM | > 10 µM | > 10 µM | > 10 µM | > 10 µM | > 10 µM | > 10 µM | > 10 µM
CCCN(CCC)CCc1c[nH]c2ccccc12 [dpt] | > 10 µM | > 10 µM | 4.54 µM | > 10 µM | 0.157 µM | 0.0318 µM | 0.042 µM | > 10 µM | > 10 µM | > 10 µM | > 10 µM | > 10 µM | 0.443 µM | 2.34 µM | 4.37 µM
CNC(C)Cc1ccc2c(c1)OCO2 (stereo not given) [mdma] | > 10 µM | > 10 µM | > 10 µM | > 10 µM | > 10 µM | > 10 µM | 0.5 µM | > 10 µM | > 10 µM | > 10 µM | > 10 µM | 6.33 µM | > 10 µM | > 10 µM | > 10 µM
CAS_82830-44-2::(2R)-1-(4-iodo-2,5-dimethoxyphenyl)propan-2-amine::DOI,(-)::US20250270173, Compound DOI | > 10 µM | 9.69 µM | 2.11 µM | > 10 µM | 0.685 µM | 2.22 µM | 0.336 µM | > 10 µM | > 10 µM | > 10 µM | 0.591 µM | 2.21 µM | > 10 µM | 1.01 µM | > 10 µM
